In US12398151B2, “Sumo inhibitor compounds and uses thereof” (SUVALENT THERAPEUTICS, INC., priority 2019, dated 2025):
Like-named read-outs stand apart in the source and are kept apart here.

Experiments:
[1] = molecular target: T1, Atg7 (Homo sapiens, UniProt O95352); test: Atg7 activating enzyme (E1) inhibition; format: biochemical; details: 25 uM compound, 60 min preincubation; read-out: Atg7 percent inhibition of adduct formation
T1 sequence (O95352 1-703): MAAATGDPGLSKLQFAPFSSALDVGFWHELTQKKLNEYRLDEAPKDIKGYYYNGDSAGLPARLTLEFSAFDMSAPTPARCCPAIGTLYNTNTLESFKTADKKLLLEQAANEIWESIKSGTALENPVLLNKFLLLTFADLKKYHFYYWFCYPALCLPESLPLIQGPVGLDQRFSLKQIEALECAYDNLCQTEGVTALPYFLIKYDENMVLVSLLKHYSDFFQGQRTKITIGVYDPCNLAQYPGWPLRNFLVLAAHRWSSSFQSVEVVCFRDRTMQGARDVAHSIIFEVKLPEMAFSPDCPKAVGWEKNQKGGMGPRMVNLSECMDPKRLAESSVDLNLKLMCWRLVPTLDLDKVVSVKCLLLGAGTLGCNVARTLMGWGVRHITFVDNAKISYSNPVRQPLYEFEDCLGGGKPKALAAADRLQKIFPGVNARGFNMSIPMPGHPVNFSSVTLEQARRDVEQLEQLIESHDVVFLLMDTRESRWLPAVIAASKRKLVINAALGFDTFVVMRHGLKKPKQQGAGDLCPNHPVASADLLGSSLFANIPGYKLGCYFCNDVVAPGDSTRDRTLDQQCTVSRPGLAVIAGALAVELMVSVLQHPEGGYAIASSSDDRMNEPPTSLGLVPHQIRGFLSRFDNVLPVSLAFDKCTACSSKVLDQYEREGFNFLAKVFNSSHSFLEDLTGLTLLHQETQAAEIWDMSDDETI
Method: (§1) Compounds are evaluated for their inhibitory effect on activating enzymes (E1) of ubiquitin, SUMO, Nedd8, Urm1, ISG15 or Atg7 using previously reported methods and protocols. One example is in: Allosteric inhibition of ubiquitin-like modifications by a class of inhibitor of SUMO-activating enzyme. Cell Chemical Biology, 26, 1-11, 2019. PMID: 28051857.
(§2) Compounds are tested in the following manner. The compound and SUMO E1 are incubated for a predetermined amount of time. UBC9, SUMO1, and ATP are added to the E1-compound mixture and incubated at 37° C. The reaction is quenched with Laemmli Buffer. The UBC9-SUMO1 conjugation is analyzed via SDS gel electrophoresis. The percent inhibition is measured by the intensity of the UBC9-SUMO1 band compared to the no compound control. Activities are listed as compound concentration (uM), preincubation time of E1 with compound (min), and percent inhibition of adduct formation (%). […]

[2] = molecular target: T2, SUMO E1 (Homo sapiens, UniProt Q9UBT2); test: SUMO E1 inhibition: UBC9-SUMO1 conjugation by SDS gel electrophoresis; format: biochemical; details: for inhibition at 10 µM: 10 uM compound; for inhibition at 9 µM: 9 uM compound; for inhibition at 1 µM: 1 uM compound; for inhibition at 27 µM: 27 uM compound
T2 sequence (Q9UBT2 1-640): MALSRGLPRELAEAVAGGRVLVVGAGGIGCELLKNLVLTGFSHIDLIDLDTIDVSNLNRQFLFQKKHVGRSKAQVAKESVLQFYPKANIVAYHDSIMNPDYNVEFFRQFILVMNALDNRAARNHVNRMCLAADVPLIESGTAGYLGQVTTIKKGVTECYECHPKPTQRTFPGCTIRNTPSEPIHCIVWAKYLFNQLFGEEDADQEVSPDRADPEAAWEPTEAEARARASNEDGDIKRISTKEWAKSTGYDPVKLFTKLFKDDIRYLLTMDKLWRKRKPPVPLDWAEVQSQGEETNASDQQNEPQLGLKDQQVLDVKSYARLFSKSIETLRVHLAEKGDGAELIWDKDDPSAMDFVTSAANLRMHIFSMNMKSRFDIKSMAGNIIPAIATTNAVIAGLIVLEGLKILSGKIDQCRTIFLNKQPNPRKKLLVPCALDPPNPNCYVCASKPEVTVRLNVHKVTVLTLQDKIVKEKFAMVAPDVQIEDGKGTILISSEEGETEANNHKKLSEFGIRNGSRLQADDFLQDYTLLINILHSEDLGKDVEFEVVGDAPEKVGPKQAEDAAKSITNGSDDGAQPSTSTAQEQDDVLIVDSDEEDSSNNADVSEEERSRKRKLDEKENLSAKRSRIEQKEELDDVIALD
T2 sequence (Q9UBE0 1-346 partner): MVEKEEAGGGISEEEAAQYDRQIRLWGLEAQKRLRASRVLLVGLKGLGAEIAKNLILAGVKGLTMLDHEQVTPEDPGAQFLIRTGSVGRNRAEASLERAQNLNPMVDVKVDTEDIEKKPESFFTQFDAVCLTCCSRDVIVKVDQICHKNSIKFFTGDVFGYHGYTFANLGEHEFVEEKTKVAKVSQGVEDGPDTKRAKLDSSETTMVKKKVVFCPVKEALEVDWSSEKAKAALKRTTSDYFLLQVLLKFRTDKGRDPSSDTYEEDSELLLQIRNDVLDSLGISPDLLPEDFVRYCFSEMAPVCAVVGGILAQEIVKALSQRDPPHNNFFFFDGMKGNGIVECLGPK
Method: as §1, §2

[3] = 25 uM compound, 60 min preincubation, read-out: SUMO E1 percent inhibition of adduct formation
[4] = 60 min preincubation, read-out: SUMO E1 percent inhibition of adduct formation
[5] = 30 min preincubation, read-out: SUMO E1 percent inhibition of adduct formation
[6] = 25 uM compound, 30 min preincubation, read-out: SUMO E1 percent inhibition of adduct formation
[7] = 15 min preincubation, read-out: SUMO E1 percent inhibition of adduct formation

Row | Compound | inhibition at 25 µM [1] | inhibition at 25 µM [2, 3] | also measured
1 | C=CC(=O)N1CCc2cc(Oc3cccnc3)ccc2C1 [Compound 54] | < 1% | 10% | 
2 | C=CC(=O)N1Cc2cc(Cl)ccc2[C@@H](C2CCCCC2)C1 [Compound 102] | < 1% |  | inhibition at 9 µM [2, 5]: 40%
3 | C=CC(=O)N1CCc2cc(CC3CCOCC3)ccc2C1 [Compound 18] | 95% | < 1% | 
4 | Cc1cc2c(s1)CN(C(=O)/C=C/c1ccccc1)C[C@@H]2c1ccccc1 [Compound 91] | < 1% |  | inhibition at 9 µM [2, 5]: < 1%
5 | C=CC(=O)N1Cc2ccc(Br)cc2[C@@H](c2ccccc2Br)C1 [Compound 55] | < 1% | 50% | 
6 | C=CC(=O)N1Cc2cc(OCC)ccc2[C@@H](c2ccccc2)C1 [Compound 36] | < 1% | 40% | 
7 | C=CC(=O)N1Cc2ccc(Br)cc2[C@@H](c2ccc(Cl)cc2)C1 [Compound 65] | < 1% |  | SUMO E1 percent inhibition of adduct formation ([2]; 25 uM compound, 60 min preincubation, 25 µM): 25 uM 60 min 10%
8 | C=CC(=O)N1CCc2cc(Nc3ccccc3)ccc2C1 [Compound 8] | < 1% | < 1% | 
9 | C=CC(=O)N1CCc2cc(Cc3ccccc3)ccc2C1 [Compound 7] | < 1% |  | inhibition at 25 µM [2, 6]: 20%
10 | C=CC(=O)N1Cc2cc(Cl)ccc2[C@@H](c2ccc[nH]c2=O)C1 [Compound 94] | < 1% |  | inhibition at 9 µM [2, 5]: < 1%
11 | C=CC(=O)N1Cc2cc(Cl)c(Cl)cc2[C@@H](c2ncccc2C)C1 [Compound 98] | < 1% |  | inhibition at 9 µM [2, 5]: < 1%
12 | C=CC(=O)N1Cc2cc(Cl)ccc2[C@@H](c2ccccc2)C1 [Compound 64] | < 1% |  | inhibition at 10 µM [2, 4]: 100%
13 | C=CC(=O)N1CCC2CCCCC2C1 (stereo not drawn) [Compound 12] | < 1% | < 1% | 
14 | C=CC(=O)N1Cc2cc(OCC(C)C)ccc2[C@@H](c2ccccc2)C1 [Compound 48] | < 1% | 30% | 
15 | C=CC(=O)N1Cc2ccccc2[C@@H](C(=O)Nc2ccccc2)C1 [Compound 32] | < 1% | < 1% | 
16 | C=CC(=O)N1CCc2cc(Br)ccc21 [Compound 4] | < 1% |  | inhibition at 25 µM [2, 6]: 10%
17 | C=CC(=O)N1Cc2ccccc2[C@@H](c2ccccc2)C1 (stereo in doubt) [Compound 11] | < 1% |  | inhibition at 10 µM [2, 4]: 90%
18 | C=CC(=O)N1Cc2ccccc2[C@@H](c2cccc(OC)c2)C1 [Compound 35] | < 1% | < 1% | 
19 | C=CC(=O)N1Cc2ccc(N)cc2C1 [Compound 14] | < 1% | < 1% | 
20 | C=CC(=O)N1CCc2c(Br)cccc2C1 [Compound 1] | < 1% |  | inhibition at 25 µM ([2]; 25 uM compound, 55 min preincubation of E1 with compound, read-out: SUMO E1 percent inhibition of adduct formation): 50%
21 | C=CC(=O)N1CCCc2cc(Br)ccc21 [Compound 20] | < 1% | < 1% | 
22 | C=CC(=O)N1Cc2cc(OCc3ccccc3)ccc2[C@@H](c2ccccc2)C1 [Compound 49] | < 1% | < 1% | 
23 | C=CC(=O)N1Cc2ccc(Cl)cc2[C@@H](c2ccccc2)C1 [Compound 63] | < 1% |  | inhibition at 10 µM [2, 4]: 50%
24 | C=CC(=O)N1Cc2sc(Cl)cc2[C@@H]([C@@H](CC)C(=O)O)C1 [Compound 134] | < 1% |  | inhibition at 27 µM [2, 7]: < 1%
25 | C=CC(=O)N1Cc2ccc(Br)cc2[C@@H](c2ccccc2Cl)C1 [Compound 46] | < 1% |  | inhibition at 9 µM [2, 5]: 50%
26 | C=CC(=O)N1CCc2cc(Oc3ccccc3)ccc2C1 [Compound 24] | < 1% | 50% | 
27 | C=CC(=O)N1Cc2sccc2[C@@H](c2ccc(OC)cc2)C1 [Compound 155] | < 1% |  | inhibition at 15 µM ([2]; 15 uM compound, 15 min preincubation, read-out: SUMO E1 percent inhibition of adduct formation): < 1%
28 | C=CC(=O)N1Cc2ccc(Br)cc2[C@@H](c2c(Cl)cccc2Cl)C1 [Compound 56] | < 1% | < 1% | 

More lines, main results first:

Row | inhibition at 25 µM [1] | inhibition at 25 µM [2, 3] | Compound | also measured
29 | < 1% |  | C=CC(=O)N1Cc2sc(Br)cc2[C@@H](c2ccccc2C)C1 [Compound 72] | inhibition at 10 µM [2, 4]: 100%
30 | < 1% |  | Cc1ccccc1[C@H]1CN(C(=O)/C=C/C(F)F)Cc2sc(Cl)cc21 [Compound 122] | inhibition at 1 µM [2, 5]: 100%
31 | < 1% |  | C=C(C)C(=O)N1Cc2sc(Cl)cc2[C@@H](c2ccccc2C)C1 [Compound 106] | inhibition at 27 µM [2, 5]: < 1%
32 | < 1% |  | Cc1ccccc1[C@H]1CN(C(=O)c2cccnc2Cl)Cc2sc(Cl)cc21 [Compound 118] | inhibition at 27 µM [2, 5]: < 1%
33 | < 1% | < 1% | C=CC(=O)N1Cc2cccc(Cl)c2[C@@H](c2ccccc2C)C1 [Compound 76] | 
34 | < 1% |  | C=CC(=O)N1Cc2sc(Cl)cc2[C@@H](c2ccccc2Br)C1 [Compound 113] | inhibition at 1 µM [2, 5]: 95%
35 | < 1% |  | C=CC(=O)N1Cc2sc(Cl)cc2[C@@H](c2ccccc2CC2CCOCC2)C1 [Compound 138] | inhibition at 9 µM [2, 7]: 50%
36 | 90% |  | CCS(=O)(=O)N1Cc2sc(Cl)cc2[C@@H](c2ccccc2C)C1 [Compound 96] | inhibition at 9 µM [2, 5]: < 1%
37 | 100% |  | Cc1ccccc1[C@H]1CN(C(=O)CBr)Cc2sc(Cl)cc21 [Compound 107] | inhibition at 9 µM [2, 5]: 100%
38 | < 1% |  | C=CC(=O)N1Cc2sc(Cl)cc2[C@@H](c2ccccc2C)[C@H]1C [Compound 112] | inhibition at 27 µM [2, 5]: 95%
39 | < 1% |  | C=CC(=O)N1CCc2sc(Cl)cc2[C@@H](c2ccccc2)C1 [Compound 142] | inhibition at 9 µM [2, 5]: 80%
40 | < 1% |  | C=CC(=O)N1Cc2cc(Cl)ccc2[C@@H](c2ccccc2C)C1 [Compound 75] | inhibition at 10 µM [2, 4]: 100%
41 | < 1% |  | C=CC(=O)N1Cc2cc(C)ccc2[C@@H](c2ccccc2C)C1 [Compound 85] | inhibition at 10 µM [2, 5]: 100%
42 | < 1% |  | C=CC(=O)N1Cc2sc(Cl)cc2[C@@H](c2ccco2)C1 [Compound 148] | inhibition at 9 µM [2, 5]: < 1%
